Here are results for 26 compounds from patent US5378706A, “Fused-thiazole derivatives active on the cholinergic system, and pharmaceutical compositions containing same” (Sanofi, priority 1987, dated 1995).

In assay [1] the test system is M1 central muscarinic cholinergic receptors. Put plainly: Antagonism of rotations induced by intrastriatal injection of pirenzepine in mice. The assay is classed as in vivo, mice (Swiss, CD 1). To be noted: for Pirenzepine antagonism ED50 i.p.: 15 minutes before intrastriatal pirenzepine 1 μg; for Pirenzepine antagonism ED50 p.o.: 30 minutes before intrastriatal pirenzepine 1 μg. Here is the method:
Pirenzepine (PZ) is a specific antagonist of the M1 central muscarinic cholinergic receptors. The intrastriatal injection of PZ into mice induces rotatory behavoir. The antagonism of this behavoir by the products according to the invention was studied.
The products according to the invention are administered either intraperitoneally (i.p.) or orally (p.o.) after solubilization in distilled water or suspension in a 5% solution of gum arabic. The control animals receive the pure solvent under the same conditions.
The animals used are female mice (Swiss, CD 1, Charles River, France) with a body weight of between 25 and 30 grams.
The pirenzepine is dissolved in a phosphate buffer and the pH of the solution is 6.
The test products or their solvents are administered in a volume of 0.4 ml per 20 g of body weight, either by i.p. injection or orally via an esophageal tube.
The number of contralateral rotations (rotations in the opposite direction to the side injected) was counted for three 2-minute periods after injection of the pirenzepine: 2nd to 4th, 8th to 10th and 13th to 15th minutes. Each treatment consists of 3 to 4 doses and 10 animals per dose. The total number of rotations and the percentage antagonism with respect to the control group are calculated for each treatment.

The target of assay [2] is T1, M1 -type muscarinic cholinergic receptor (Rattus norvegicus, UniProt P08482).
T1 sequence (P08482 1-460): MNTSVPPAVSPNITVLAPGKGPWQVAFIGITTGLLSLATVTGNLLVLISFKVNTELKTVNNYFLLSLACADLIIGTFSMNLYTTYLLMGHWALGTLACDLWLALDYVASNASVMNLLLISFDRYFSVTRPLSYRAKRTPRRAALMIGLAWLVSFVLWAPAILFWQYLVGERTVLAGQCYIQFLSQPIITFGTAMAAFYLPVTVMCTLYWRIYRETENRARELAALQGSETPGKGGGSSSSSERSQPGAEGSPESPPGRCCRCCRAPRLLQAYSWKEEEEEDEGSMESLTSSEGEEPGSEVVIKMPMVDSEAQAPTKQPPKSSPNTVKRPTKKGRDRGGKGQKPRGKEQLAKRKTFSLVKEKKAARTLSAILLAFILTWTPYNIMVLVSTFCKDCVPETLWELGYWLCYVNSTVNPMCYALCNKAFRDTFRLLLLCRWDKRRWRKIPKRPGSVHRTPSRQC
Put plainly: biochemical. The format is binding. To be noted: for ratio R of the IC50 values for the M1 and M2 receptors: selectivity, values correspond to IC50 M2 / IC50 M1.
Procedure: The interaction of the molecules with the M1 -type muscarinic receptors was studied by in vitro measurement, on a rat hippocampus homogenate, of the displacement of tritiated pirenzepine from its specific binding sites. Aliquots (10 μl) of a 5% (w/v) rat hippocampus homogenate in an Na2 HPO4 buffer (50 mM, pH 7.40) are incubated for 2 hours at 4° C. in the presence of ^3 H-PZ (76 Ci/mmol; final concentration 1 nM) and increasing concentrations of the test product. The final volume is 2 ml. The reaction is stopped by centrifugation for 10 minutes at 50,000×g. After decantation and washing of the residues, the bound radioactivity is counted by liquid scintillation. The non-specific binding is determined in the presence of 10 μM atropine sulfate.

In assay [3] the target is T2, M2 -type muscarinic cholinergic receptor (Cavia porcellus, UniProt H0VRN8).
T2 construct: on a smooth guinea-pig ileum muscle homogenate; from tissue; host or cells: guinea-pig ileum smooth muscle homogenate
T2 sequence (H0VRN8 1-466): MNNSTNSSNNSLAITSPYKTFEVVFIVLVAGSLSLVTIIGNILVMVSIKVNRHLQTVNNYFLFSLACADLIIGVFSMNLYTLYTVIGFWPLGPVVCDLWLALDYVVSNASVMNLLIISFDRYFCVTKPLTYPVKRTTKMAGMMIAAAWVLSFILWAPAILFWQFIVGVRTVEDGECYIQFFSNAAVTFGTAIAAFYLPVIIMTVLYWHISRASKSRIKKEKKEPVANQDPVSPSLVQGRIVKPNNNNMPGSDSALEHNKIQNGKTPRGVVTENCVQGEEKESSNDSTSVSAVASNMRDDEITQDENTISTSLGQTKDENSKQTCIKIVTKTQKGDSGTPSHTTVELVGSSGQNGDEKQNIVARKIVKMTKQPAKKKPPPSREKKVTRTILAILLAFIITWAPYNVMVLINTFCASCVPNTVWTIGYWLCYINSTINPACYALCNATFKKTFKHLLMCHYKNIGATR
Briefly: Affinity for the M2-type muscarinic cholinergic receptor, displacement of tritiated N-methylscopolamine (3H-NMS) on smooth guinea-pig ileum muscle homogenate. The assay is classed as binding. Here is the method: The M1 -type receptors are concentrated in certain regions of the brain, such as the hippocampus, the cerebral cortex and the striatum, and also in the sympathetic ganglia. These binding sites can be selectively labeled with tritiated pirenzepine (^3 H-PZ). The M2 -type receptors predominate in the heart and the ileum and can be labeled with tritiated N-methyl-scopolamine (^3 H-NMS). The selectivity of the products of the invention with respect to the M1 and M2 sites was determined by studying their in vitro interaction with ^3 H-PZ and ^3 H-NMS firmly bound with a high affinity to rat hippocampus membranes and smooth guinea-pig ileum muscle, respectively.
The interaction with the M2 -type muscarinic receptors was studied by in vitro measurement, on a smooth guinea-pig ileum muscle homogenate, of the displacement of tritiated N-methylscopolamine from its specific binding sites. […] The final volume is 1 ml. The reaction is stopped by centrifugation for 5 minutes at 15,000×g. The non-specific binding is determined in the presence of 10 mM atropine sulfate.
The IC50 for ^3 H-PZ displacement represents the affinity for the M1 receptor; the IC50 for ^3 H-NMS displacement represents the affinity for the M2 receptor.

[4] abbreviates: guinea-pig ileum smooth muscle homogenate, 3H-NMS 0.3 nM, 20 minutes at 30° C., pH 7.5, read-out: IC50 3H-NMS (M2).
Setting [5] is: rat hippocampus homogenate, 3H-PZ 1 nM, 2 hours at 4° C., pH 7.40, read-out: IC50 3H-PZ (M1).

pIC50: −log10 of the molar value. Where two headings read alike, the source gives them in different places.

For `CCN(CC)CCNc1ncc(-c2ccccc2)s1.Cl.Cl` [SR 44318 A, 2-[(2-Diethylaminoethyl)amino]-5-phenylthiazole dihydrochloride], in assay [1], the “Pirenzepine antagonism ED50 i.p.” value was 1.5 mg/kg and the “Pirenzepine antagonism ED50 p.o.” value is 3 mg/kg. In addition, the pIC50 in assay [2] (read-out: IC50 3H-PZ (M1)) was 5.47. In addition, the “ratio R of the IC50 values for the M1 and M2 receptors” value (shortened to “ratio R of the IC50 values”) in assay [2] was 11. Besides, in assay [3] (setting [4]), the pIC50 was 4.42.
Consider `CCN(CC)CCNc1nc2c(s1)CCCc1ccccc1-2` [SR 44323 A], for which the “Pirenzepine antagonism ED50 i.p.” value in assay [1] is reported as 10 mg/kg. Also, the pIC50 is 5.77 in assay [2] (setting [5]) and 5.07 in assay [3] (setting [4]). The “ratio R of the IC50 values” value in assay [2] is on record as 5.
As to `Cc1sc(NCCCN)nc1-c1ccccc1.Cl.Cl` [SR 44514 A, 2-[(3-Aminopropyl)amino]-5-methyl-4-phenylthiazole dihydrochloride], the “Pirenzepine antagonism ED50 i.p.” value in assay [1] is 3 mg/kg. Also, the pIC50 in assay [2] (read-out: IC50 3H-PZ (M1)) is 6.30; in assay [3] (setting [4]) it was less than 4.00. Further, the “ratio R of the IC50 values” value in assay [2] is listed as greater than 200.
`Cc1ccccc1-c1csc(NCCCN(C)C)n1` [SR 45001 A]: the “Pirenzepine antagonism ED50 p.o.” value in assay [1] is recorded as 3 mg/kg. The pIC50 in assay [2] (setting [5]) is 5.59; in assay [3] (setting [4]), 4.52. Moreover, the “ratio R of the IC50 values” value in assay [2] is 11.
Turning to `Cc1cc(C)c(-c2csc(NCCCN(C(C)C)C(C)C)n2)c(C)c1` [SR 44887 A], in assay [1], the “Pirenzepine antagonism ED50 p.o.” value amounted to 0.3 mg/kg.
As for `COC(=O)C1=CCCN(C)C1` [Arecoline, reference compound], in assay [1], the “Pirenzepine antagonism ED50 i.p.” value was found to be 1 mg/kg and the “Pirenzepine antagonism ED50 p.o.” value is listed as 0.5 mg/kg. In assay [3], this compound showed a pIC50 of 5.35.
With `Cc1nc(NCCCN(C)C)sc1-c1ccccc1` [SR 44467 A], the “Pirenzepine antagonism ED50 p.o.” value in assay [1] worked out at 3 mg/kg. In addition, the values for the pIC50 in assay [2] (setting [5]) and in assay [3] (setting [4]) were 5.82 and 4.42, respectively. In assay [2], the “ratio R of the IC50 values” value is 25.
Take `CCN(CC)CCCNc1nc2c(s1)CCCc1ccccc1-2` [SR 44326 A]: the “Pirenzepine antagonism ED50 i.p.” value in assay [1] was 3 mg/kg. Moreover, the pIC50 in assay [2] (setting [5]) is 5.66; in assay [3] (setting [4]), less than 4.00. Also, the “ratio R of the IC50 values” value in assay [2] was greater than 45.
Take `CCN(CC)CCCNc1ncc(-c2ccccc2)s1` [SR 44346 A]: in assay [1], the “Pirenzepine antagonism ED50 i.p.” value was determined as 1 mg/kg. Further, the results for the pIC50 in assay [2] (setting [5]) and in assay [3] (setting [4]) were 5.70 and 4.60, respectively. The “ratio R of the IC50 values” value in assay [2] turned out to be 12.5.
With `Cc1cc(C)c(-c2csc(NCCCN)n2)c(C)c1` [SR 44949 A, 2-[(3-Aminopropyl)amino]-4-(2,4,6-trimethylphenyl)thiazole], in assay [1], the “Pirenzepine antagonism ED50 p.o.” value amounted to 10 mg/kg.
For `CCN1CCCC(Nc2nc(-c3c(C)cc(C)cc3C)cs2)C1` (stereo not shown) [SR 44965 A], the “Pirenzepine antagonism ED50 p.o.” value in assay [1] was 3 mg/kg. Moreover, the values for the pIC50 in assay [2] (setting [5]) and in assay [3] (setting [4]) were 5.92 and 4.22, respectively. In assay [2], the “ratio R of the IC50 values” value worked out at 50.
Taken in the same sequence, the figures for `CN(C)CCCNc1nc(-c2ccc(Cl)cc2Cl)cs1` [SR 44749 A] were 3 mg/kg, 5.74, 4.59 and 14.
Taken in the same sequence, the figures for `CN(C)CCCNc1nc(-c2ccc(Cl)cc2)cs1` [SR 44493 A] were 0.3 mg/kg, 5.80, 4.35 and 28.
`Cc1cc(C)c(-c2csc(NCCCN(C)C)n2)c(C)c1` [SR 44421 A]: the “Pirenzepine antagonism ED50 p.o.” value in assay [1] is given as 0.2 mg/kg. In addition, the pIC50 in assay [2] (setting [5]) is 5.44; in assay [3] (setting [4]), less than 4.00. The “ratio R of the IC50 values” value in assay [2] is on record as greater than 27.
In the case of `CN(C)CCCNc1nc(-c2ccccc2)c(-c2ccccc2)s1` [SR 45015 A], the “Pirenzepine antagonism ED50 p.o.” value in assay [1] came to 0.70 mg/kg. For the same compound, the pIC50 in assay [2] (setting [5]) was 6.52; in assay [3] (setting [4]) it was 5.40. In addition, the “ratio R of the IC50 values” value in assay [2] came out at 13.
`Cc1cc(C)c(-c2csc(NCc3cccnc3)n2)c(C)c1` [SR 44839 A]: the “Pirenzepine antagonism ED50 p.o.” value in assay [1] came out at 0.2 mg/kg. Further, the pIC50 in assay [2] (setting [5]) was 6.40; in assay [3] (setting [4]) it was 4.00. Besides, the “ratio R of the IC50 values” value in assay [2] is reported as 250.
Turning to `CN1CCN(CCCNc2nc(-c3ccc(F)cc3)cs2)CC1` [SR 44862 A], the “Pirenzepine antagonism ED50 p.o.” value in assay [1] is 3 mg/kg. The pIC50 is 5.52 in assay [2] (setting [5]) and 4.47 in assay [3] (setting [4]). Further, in assay [2], the “ratio R of the IC50 values” value is 11.
As to `CCN(CC)CCCNc1nc(-c2ccccc2)c(-c2ccccc2)s1` [SR 44435 A], in assay [1], the “Pirenzepine antagonism ED50 i.p.” value is on record as 2 mg/kg. Also, the pIC50 in assay [2] (setting [5]) was 6.44; in assay [3] (setting [4]), 5.52. Further, the “ratio R of the IC50 values” value in assay [2] was 8.
The like results for `CN(C)CCCNc1nc2c(s1)CCCc1ccccc1-2` [SR 44327 A] were, in that order, 10 mg/kg, 5.72, 4.42 and 20.
Take `O=C1CCCN1CC#CCN1CCCC1` [Oxotremorine, reference compound]: the “Pirenzepine antagonism ED50 i.p.” value in assay [1] was determined as 0.005 mg/kg. For the same compound, in assay [2], the pIC50 is 6.62; the “ratio R of the IC50 values” value is on record as 1. The same compound gave a pIC50 in assay [3] of 6.70.
On to `CN(C)CCCNc1nc(-c2ccc(F)cc2F)cs1` [SR 44770 A], for which the “Pirenzepine antagonism ED50 p.o.” value in assay [1] came to 3 mg/kg. The values for the pIC50 in assay [2] (setting [5]) and in assay [3] (setting [4]) were 6.22 and 4.59, respectively. Besides, the “ratio R of the IC50 values” value in assay [2] is 43.
For `CCN(CC)CCCNc1nc(-c2ccc3ccccc3c2)cs1` [SR 44573 A], the “Pirenzepine antagonism ED50 p.o.” value in assay [1] amounted to 2.50 mg/kg. Further, the pIC50 in assay [2] (setting [5]) was 5.74; in assay [3] (setting [4]), 4.89. In addition, the “ratio R of the IC50 values” value in assay [2] was 7.
Turning to `c1ccc(-c2cnc(NCCN3CCOCC3)s2)cc1` [SR 44285 A], the “Pirenzepine antagonism ED50 i.p.” value in assay [1] was 3 mg/kg.
With `Cc1cc(C)c(-c2csc(NCCC3CCCN3C)n2)c(C)c1` (stereo not shown) [SR 44814 A], in assay [1], the “Pirenzepine antagonism ED50 p.o.” value came to 0.2 mg/kg. Besides, the pIC50 in assay [2] (setting [5]) is 5.85. For the same compound, the “ratio R of the IC50 values” value in assay [2] is on record as 7.
With `CN(C)CCCNc1nc(Cc2ccccc2)c(-c2ccccc2)s1` [SR 45016 A], the “Pirenzepine antagonism ED50 p.o.” value in assay [1] was determined as 2 mg/kg. Moreover, the results for the pIC50 in assay [2] (setting [5]) and in assay [3] (setting [4]) were 7.00 and 5.26, respectively. In addition, the “ratio R of the IC50 values” value in assay [2] stood at 55.
Take `c1ccc2c(c1)CCCc1sc(NCCCN3CCOCC3)nc1-2` [SR 44392 A]: the “Pirenzepine antagonism ED50 i.p.” value in assay [1] is recorded as 3 mg/kg.
